Results reported in ChEMBL document CHEMBL1136454, “Synthesis and biological activity of N-Acylated ornithine analogues of daptomycin” (Bioorg Med Chem Lett, 2003).
Values after ≈ are worked out from the molar mass of the structure shown.

Assays:
Type in all cases: functional
[1] = system: Enterococcus faecium; assay: Antibacterial activity against Enterococcus faecium ATCC 6569
[2] = system: Enterococcus faecalis; assay: Antibacterial activity against Enterococcus faecalis ATCC 49452
[3] = system: Staphylococcus aureus; assay: Antibacterial activity against methicillin resistant Staphylococcus aureus ATCC 43300 (MRSA)
[4] = system: Staphylococcus aureus; assay: Antibacterial activity against methicillin susceptible Staphylococcus aureus ATCC 29213 (MSSA )

SMILES | MIC [1] | MIC [2] | MIC [3] | MIC [4]
CCCCCCCCCC(=O)N[C@@H](Cc1c[nH]c2ccccc12)C(=O)N[C@H](CC(N)=O)C(=O)N[C@@H](CC(=O)O)C(=O)N[C@@H]1C(=O)NCC(=O)N[C@@H](CCCNC(=O)C(C)CC(=O)c2ccccc2N)C(=O)N[C@@H](CC(=O)O)C(=O)N[C@H](C)C(=O)N[C@@H](CC(=O)O)C(=O)NCC(=O)N[C@H](CO)C(=O)N[C@@H]([C@H](C)CC(=O)O)C(=O)N[C@@H](CC(=O)c2ccccc2N)C(=O)O[C@@H]1C (some centres not stated) | 6.25 µg/mL (≈ 3.45 µM) | 12.5 µg/mL (≈ 6.91 µM) | 1.56 µg/mL (≈ 0.862 µM) | 1.56 µg/mL (≈ 0.862 µM)
CCCCCCCCCC(=O)N[C@@H](Cc1c[nH]c2ccccc12)C(=O)N[C@@H](CC(N)=O)C(=O)N[C@@H](CC(=O)O)C(=O)N[C@@H]1C(=O)NCC(=O)N[C@@H](CCCNC(=O)C(N)Cc2c[nH]c3ccccc23)C(=O)N[C@@H](CC(=O)O)C(=O)N[C@H](C)C(=O)N[C@@H](CC(=O)O)C(=O)NCC(=O)N[C@H](CO)C(=O)N[C@@H]([C@H](C)CC(=O)O)C(=O)N[C@@H](CC(=O)c2ccccc2N)C(=O)O[C@@H]1C (some centres not stated) | 6.25 µg/mL (≈ 3.46 µM) | 12.5 µg/mL (≈ 6.92 µM) | 1.56 µg/mL (≈ 0.863 µM) | 1.56 µg/mL (≈ 0.863 µM)
CCCCCCCCCC(=O)N[C@@H](Cc1c[nH]c2ccccc12)C(=O)N[C@@H](CC(N)=O)C(=O)N[C@@H](CC(=O)O)C(=O)N[C@@H]1C(=O)NCC(=O)N[C@@H](CCCNC(=O)C(N)Cc2c[nH]c3ccc(OC)cc23)C(=O)N[C@@H](CC(=O)O)C(=O)N[C@H](C)C(=O)N[C@@H](CC(=O)O)C(=O)NCC(=O)N[C@H](CO)C(=O)N[C@@H]([C@H](C)CC(=O)O)C(=O)N[C@@H](CC(=O)c2ccccc2N)C(=O)O[C@@H]1C (some centres not stated) | 12.5 µg/mL (≈ 6.8 µM) | 25 µg/mL (≈ 13.6 µM) | 1.56 µg/mL (≈ 0.849 µM) | 1.56 µg/mL (≈ 0.849 µM)
CCCCCCCCCC(=O)N[C@@H](Cc1c[nH]c2ccccc12)C(=O)N[C@H](CC(N)=O)C(=O)N[C@@H](CCO)C(=O)N[C@@H]1C(=O)NCC(=O)N[C@@H](CCCNC(=O)C(N)Cc2c[nH]c3ccc(F)cc23)C(=O)N[C@@H](CC(=O)O)C(=O)N[C@H](C)C(=O)N[C@@H](CC(=O)O)C(=O)NCC(=O)N[C@H](CO)C(=O)N[C@@H]([C@H](C)CC(=O)O)C(=O)N[C@@H](CC(=O)c2ccccc2N)C(=O)O[C@@H]1C (some centres not stated) | 3.1 µg/mL (≈ 1.71 µM) | 1.56 µg/mL (≈ 0.861 µM) | 1.56 µg/mL (≈ 0.861 µM) | 1.56 µg/mL (≈ 0.861 µM)
CCCCCCCCCC(=O)N[C@@H](Cc1c[nH]c2ccccc12)C(=O)N[C@H](CC(N)=O)C(=O)N[C@@H](CC(=O)O)C(=O)N[C@@H]1C(=O)NCC(=O)N[C@@H](CCCNC(=O)c2cccc(OC)c2N)C(=O)N[C@@H](CC(=O)O)C(=O)N[C@H](C)C(=O)N[C@@H](CC(=O)O)C(=O)NCC(=O)N[C@H](CO)C(=O)N[C@@H]([C@H](C)CC(=O)O)C(=O)N[C@@H](CC(=O)c2ccccc2N)C(=O)O[C@@H]1C | 10 µg/mL (≈ 5.65 µM) | 10 µg/mL (≈ 5.65 µM) | – | 0.63 µg/mL (≈ 0.356 µM)
CCCCCCCCCC(=O)N[C@@H](Cc1c[nH]c2ccccc12)C(=O)N[C@H](CC(N)=O)C(=O)N[C@@H](CC(=O)O)C(=O)N[C@@H]1C(=O)NCC(=O)N[C@@H](CCCNC(=O)c2cccc(C)c2N)C(=O)N[C@@H](CC(=O)O)C(=O)N[C@H](C)C(=O)N[C@@H](CC(=O)O)C(=O)NCC(=O)N[C@H](CO)C(=O)N[C@@H]([C@H](C)CC(=O)O)C(=O)N[C@@H](CC(=O)c2ccccc2N)C(=O)O[C@@H]1C | 10 µg/mL (≈ 5.7 µM) | 10 µg/mL (≈ 5.7 µM) | – | 0.63 µg/mL (≈ 0.359 µM)
CCCCCCCCCC(=O)N[C@@H](Cc1c[nH]c2ccccc12)C(=O)N[C@H](CC(N)=O)C(=O)N[C@@H](CC(=O)O)C(=O)N[C@@H]1C(=O)NCC(=O)N[C@@H](CCCNC(=O)c2cc(C(=O)O)ccc2N)C(=O)N[C@@H](CC(=O)O)C(=O)N[C@H](C)C(=O)N[C@@H](CC(=O)O)C(=O)NCC(=O)N[C@H](CO)C(=O)N[C@@H]([C@H](C)CC(=O)O)C(=O)N[C@@H](CC(=O)c2ccccc2N)C(=O)O[C@@H]1C | 10 µg/mL (≈ 5.61 µM) | 12.5 µg/mL (≈ 7.01 µM) | 3.1 µg/mL (≈ 1.74 µM) | 1.25 µg/mL (≈ 0.701 µM)
CCCCCCCCCC(=O)N[C@@H](Cc1c[nH]c2ccccc12)C(=O)N[C@H](CC(N)=O)C(=O)N[C@@H](CC(=O)O)C(=O)N[C@@H]1C(=O)NCC(=O)N[C@@H](CCCNC(=O)c2ccccc2I)C(=O)N[C@@H](CC(=O)O)C(=O)N[C@H](C)C(=O)N[C@@H](CC(=O)O)C(=O)NCC(=O)N[C@H](CO)C(=O)N[C@@H]([C@H](C)CC(=O)O)C(=O)N[C@@H](CC(=O)c2ccccc2N)C(=O)O[C@@H]1C | 3.1 µg/mL (≈ 1.68 µM) | 12.5 µg/mL (≈ 6.75 µM) | 1.56 µg/mL (≈ 0.843 µM) | 1.56 µg/mL (≈ 0.843 µM)
CCCCCCCCCC(=O)N[C@@H](Cc1c[nH]c2ccccc12)C(=O)N[C@H](CC(N)=O)C(=O)N[C@@H](CC(=O)O)C(=O)N[C@@H]1C(=O)NCC(=O)N[C@@H](CCCNC(=O)c2ccccc2SC)C(=O)N[C@@H](CC(=O)O)C(=O)N[C@H](C)C(=O)N[C@@H](CC(=O)O)C(=O)NCC(=O)N[C@H](CO)C(=O)N[C@@H]([C@H](C)CC(=O)O)C(=O)N[C@@H](CC(=O)c2ccccc2N)C(=O)O[C@@H]1C | 6.25 µg/mL (≈ 3.53 µM) | 25 µg/mL (≈ 14.1 µM) | 1.56 µg/mL (≈ 0.881 µM) | 3.1 µg/mL (≈ 1.75 µM)
CCCCCCCCCC(=O)N[C@@H](Cc1c[nH]c2ccccc12)C(=O)N[C@H](CC(N)=O)C(=O)N[C@@H](CC(=O)O)C(=O)N[C@@H]1C(=O)NCC(=O)N[C@@H](CCCNC(=O)c2ccccc2OC)C(=O)N[C@@H](CC(=O)O)C(=O)N[C@H](C)C(=O)N[C@@H](CC(=O)O)C(=O)NCC(=O)N[C@H](CO)C(=O)N[C@@H]([C@H](C)CC(=O)O)C(=O)N[C@@H](CC(=O)c2ccccc2N)C(=O)O[C@@H]1C | 6.25 µg/mL (≈ 3.56 µM) | 25 µg/mL (≈ 14.2 µM) | 3.1 µg/mL (≈ 1.77 µM) | 1.25 µg/mL (≈ 0.712 µM)
CCCCCCCCCC(=O)N[C@@H](Cc1c[nH]c2ccccc12)C(=O)N[C@H](CC(N)=O)C(=O)N[C@@H](CC(=O)O)C(=O)N[C@@H]1C(=O)NCC(=O)N[C@@H](CCCNC(=O)c2cc(O)ccc2N)C(=O)N[C@@H](CC(=O)O)C(=O)N[C@H](C)C(=O)N[C@@H](CC(=O)O)C(=O)NCC(=O)N[C@H](CO)C(=O)N[C@@H]([C@H](C)CC(=O)O)C(=O)N[C@@H](CC(=O)c2ccccc2N)C(=O)O[C@@H]1C | 10 µg/mL (≈ 5.7 µM) | 10 µg/mL (≈ 5.7 µM) | – | 1.25 µg/mL (≈ 0.712 µM)
CCCCCCCCCC(=O)N[C@@H](Cc1c[nH]c2ccccc12)C(=O)N[C@H](CC(N)=O)C(=O)N[C@@H](CC(=O)O)C(=O)N[C@@H]1C(=O)NCC(=O)N[C@@H](CCCNC(=O)c2cc(OC)ccc2N)C(=O)N[C@@H](CC(=O)O)C(=O)N[C@H](C)C(=O)N[C@@H](CC(=O)O)C(=O)NCC(=O)N[C@H](CO)C(=O)N[C@@H]([C@H](C)CC(=O)O)C(=O)N[C@@H](CC(=O)c2ccccc2N)C(=O)O[C@@H]1C | 10 µg/mL (≈ 5.65 µM) | 10 µg/mL (≈ 5.65 µM) | – | 2.5 µg/mL (≈ 1.41 µM)
CCCCCCCCCC(=O)N[C@@H](Cc1c[nH]c2ccccc12)C(=O)N[C@H](CC(N)=O)C(=O)N[C@@H](CCO)C(=O)N[C@@H]1C(=O)NCC(=O)N[C@@H](CCCNC(=O)c2c(N)cccc2F)C(=O)N[C@@H](CC(=O)O)C(=O)N[C@H](C)C(=O)N[C@@H](CC(=O)O)C(=O)NCC(=O)N[C@H](CO)C(=O)N[C@@H]([C@H](C)CC(=O)O)C(=O)N[C@@H](CC(=O)c2ccccc2N)C(=O)O[C@@H]1C | 3.1 µg/mL (≈ 1.78 µM) | 3.1 µg/mL (≈ 1.78 µM) | 0.78 µg/mL (≈ 0.447 µM) | 0.78 µg/mL (≈ 0.447 µM)
CCCCCCCCCC(=O)N[C@@H](Cc1c[nH]c2ccccc12)C(=O)N[C@H](CC(N)=O)C(=O)N[C@@H](CCO)C(=O)N[C@@H]1C(=O)NCC(=O)N[C@@H](CCCNC(=O)c2ccccc2)C(=O)N[C@@H](CC(=O)O)C(=O)N[C@H](C)C(=O)N[C@@H](CC(=O)O)C(=O)NCC(=O)N[C@H](CO)C(=O)N[C@@H]([C@H](C)CC(=O)O)C(=O)N[C@@H](CC(=O)c2ccccc2N)C(=O)O[C@@H]1C | 25 µg/mL (≈ 14.6 µM) | 25 µg/mL (≈ 14.6 µM) | 12.5 µg/mL (≈ 7.31 µM) | 6.25 µg/mL (≈ 3.65 µM)
